# Data published in US20060046968A1, “Prodrug substituted benzoxazoles as estrogenic agents” (priority 2004, published 2006).
# Tests used:
# [1] = target: T1, human ERβ (Homo sapiens, UniProt Q92731); assay: ER radioligand binding competition, ERβ
# T1 construct: Flag (C); made in house; host or cells: E. coli BL21 (DE3), clarified lysate
# [2] = target: T2, human ERα (Homo sapiens, UniProt P03372); assay: ER radioligand binding competition, ERα; conditions: competition with [3H]-17β-estradiol; read-out: ER-α IC50
# T2 construct: These templates contained amino acids M250-V595 of human ERα; His (N); Flag (C); made in house; host or cells: E. coli BL21 (DE3), clarified lysate
# T2 sequence (P03372 250-595): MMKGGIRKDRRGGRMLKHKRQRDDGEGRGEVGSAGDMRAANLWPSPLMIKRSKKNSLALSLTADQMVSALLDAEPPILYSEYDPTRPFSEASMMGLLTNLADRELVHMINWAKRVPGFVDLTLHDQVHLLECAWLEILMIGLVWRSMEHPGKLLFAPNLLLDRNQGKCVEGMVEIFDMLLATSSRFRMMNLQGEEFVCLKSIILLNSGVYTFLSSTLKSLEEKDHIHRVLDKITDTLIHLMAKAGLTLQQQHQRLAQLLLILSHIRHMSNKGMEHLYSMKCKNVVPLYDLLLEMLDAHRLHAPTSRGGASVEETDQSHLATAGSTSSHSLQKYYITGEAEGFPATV
# [3] = system: Sexually immature 129 SvE mice; assay: Mouse uterotrophic test procedure (Procedure 2); format: in vivo; conditions: compound 50 mg/kg s.c., days 22-25
# [4] = system: Progesterone receptor mRNA; assay: Progesterone receptor mRNA regulation in the preoptic area of the rat brain; format: in vivo; conditions: 10 mg/kg
# T1 sequence (Q92731 214-530): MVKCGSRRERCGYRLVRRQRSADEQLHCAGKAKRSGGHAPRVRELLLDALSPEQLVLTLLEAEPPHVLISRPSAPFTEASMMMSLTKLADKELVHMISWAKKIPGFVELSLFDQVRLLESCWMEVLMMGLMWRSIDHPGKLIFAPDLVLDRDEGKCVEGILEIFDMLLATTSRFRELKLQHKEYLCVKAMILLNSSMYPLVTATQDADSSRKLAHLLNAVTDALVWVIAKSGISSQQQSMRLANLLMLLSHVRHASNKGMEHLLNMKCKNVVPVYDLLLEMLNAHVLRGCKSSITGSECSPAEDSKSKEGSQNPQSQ
Compound,IC50 [1] [nM],IC50 [2] [nM],mean uterine weight ± SEM [3] [mg],Progesterone receptor mRNA (mean ± stdev) [4] [arbitrary units]
"C=C(F)c1cc(O)cc2nc(-c3ccc(O)c(F)c3)oc12 [Example 64, 2-(3-FLUORO-4-HYDROXYPHENYL)-7-(1-FLUOROVI NYL)-1,3-BENZOXAZOL-5-OL]",3,376,9.8 ± 0.7,431.3 ± 65.6
"C=Cc1cc(O)cc2nc(-c3ccc(O)c(F)c3F)oc12 [Example 26, 2-(2,3-DIFLUORO-4-HYDROXYPHENYL)-7-VINYL-1,3-BENZOXAZOL-5-OL]",–,–,9.0 ± 0.3,467.8 ± 66.7
